Laboratory results taken from PubChem BioAssay (NCI).
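Grown in 96-well plates, cells were treated for 48 hours with each compound at five concentrations. Insufficient inhibition: endpoint recorded as highest concentration tested. At the TGI there is no net growth.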

Key:
Test in all cases: growth of human tumour cells (NCI), 48 h
[1] = system: M14 melanoma
[2] = system: UO-31 renal
[3] = system: HOP-62 NSCLC
[4] = system: K-562 leukemia
[5] = system: SW-620 colon
[6] = system: RPMI-8226 leukemia
[7] = system: LOX IMVI melanoma
[8] = system: SF-268 CNS
[9] = system: SK-OV-3 ovarian
[10] = system: TK-10 renal
[11] = system: 786-0 renal
[12] = system: SNB-19 CNS
[13] = system: SF-539 CNS
[14] = system: SR leukemia
[15] = system: HCT-116 colon
[16] = system: COLO 205 colon
[17] = system: MALME-3M melanoma
[18] = system: MDA-MB-435
[19] = system: NCI/ADR-RES ovarian
[20] = system: MDA-N
[21] = system: EKVX NSCLC
[22] = system: OVCAR-4 ovarian
[23] = system: UACC-257 melanoma
[24] = system: U251 CNS
[25] = system: HOP-92 NSCLC
[26] = system: DU-145 prostate
[27] = system: NCI-H23 lung
[28] = system: CCRF-CEM leukemia
[29] = system: PC-3 prostate
[30] = system: A549 NSCLC
[31] = system: OVCAR-3 ovarian
[32] = system: SK-MEL-5 melanoma
[33] = system: ACHN renal
[34] = system: HT29 colon
[35] = system: HCT-15 colon
[36] = system: NCI-H226 lung
[37] = system: RXF 393 renal
[38] = system: KM12 colon
[39] = system: OVCAR-8 ovarian
[40] = system: OVCAR-5 ovarian
[41] = system: IGROV1 ovarian
[42] = system: NCI-H460 lung
[43] = system: CAKI-1 renal
[44] = system: SK-MEL-28 melanoma
[45] = system: HCC-2998 colon
[46] = system: MDA-MB-231 breast
[47] = system: MCF7 breast
[48] = system: SK-MEL-2 melanoma
[49] = system: HS 578T breast
[50] = system: BT-549 breast
[51] = system: T-47D breast
[52] = system: MOLT-4 leukemia
[53] = system: SN12C renal
[54] = system: A498 renal
[55] = system: NCI-H522 lung
[56] = system: UACC-62 melanoma
[57] = system: SNB-75 CNS
[58] = system: SF-295 CNS

Compound `CCCC[C@@H](C)/C=C1\CN2CCC[C@H]2[C@@](C)(OCc2ccccc2)[C@@H]1O` has a TGI [1] greater than 50 µM, a TGI [2] greater than 16.6 µM and a TGI [3] of 18.4 µM. For the same compound, the TGI [4] was greater than 50 µM, the TGI [5] was greater than 50 µM and the TGI [6] was greater than 23.7 µM. For the same compound, the TGI [7] was greater than 50 µM, the TGI [8] was greater than 50 µM and the TGI [9] was greater than 50 µM. It also gave a TGI [10] greater than 50 µM, a TGI [11] greater than 50 µM and a TGI [12] greater than 50 µM. The TGI [13] was 49.7 µM, the TGI [14] was greater than 50 µM and the TGI [15] was greater than 50 µM. The TGI [16] was greater than 50 µM, the TGI [17] was greater than 50 µM and the TGI [18] was greater than 50 µM. The TGI [19] was greater than 50 µM, the TGI [20] was greater than 50 µM and the TGI [21] was greater than 50 µM. It also gave a TGI [22] greater than 50 µM, a TGI [23] greater than 46.1 µM and a TGI [24] greater than 50 µM. The TGI [25] was greater than 50 µM, the TGI [26] was greater than 19.3 µM and the TGI [27] was greater than 50 µM. For the same compound, the TGI [28] was greater than 50 µM, the TGI [29] was greater than 50 µM and the TGI [30] was greater than 50 µM. It also gave a TGI [31] greater than 28.7 µM, a TGI [32] greater than 50 µM and a TGI [33] greater than 50 µM. For the same compound, the TGI [34] was greater than 50 µM, the TGI [35] was greater than 50 µM and the TGI [36] was greater than 50 µM. For the same compound, the TGI [37] was greater than 50 µM, the TGI [38] was greater than 18.9 µM and the TGI [39] was greater than 50 µM. The TGI [40] was greater than 50 µM, the TGI [41] was greater than 50 µM and the TGI [42] was greater than 50 µM. It also gave a TGI [43] greater than 50 µM, a TGI [44] greater than 50 µM and a TGI [45] greater than 50 µM. For the same compound, the TGI [46] was greater than 50 µM, the TGI [47] was greater than 50 µM and the TGI [48] was greater than 50 µM. The TGI [49] was greater than 50 µM, the TGI [50] was greater than 50 µM and the TGI [51] was greater than 19.3 µM. For the same compound, the TGI [52] was greater than 50 µM, the TGI [53] was greater than 50 µM and the TGI [54] was greater than 50 µM. The TGI [55] was greater than 50 µM, the TGI [56] was greater than 50 µM and the TGI [57] was greater than 50 µM. For the same compound, the TGI [58] was greater than 50 µM.
